Data on two molecules can be found in paper PMC10367051, “Comprehensive Mechanistic View of the Hydrolysis of Oxadiazole-Based Inhibitors by Histone Deacetylase 6 (HDAC6)” (ACS Chemical Biology, 2023).

Some results are limits rather than exact numbers.

In one experiment the target is T1, zHDAC6 (Y745F) (Danio rerio, UniProt F8W4B7, Y745F).
T1 construct: Danio rerio HDAC6 (amino acids 440–798; zHDAC6); His (N, cleaved yes); MBP (N, cleaved yes); made in house; host or cells: RIPL Escherichia coli
T1 sequence (F8W4B7 440-798 Y745F): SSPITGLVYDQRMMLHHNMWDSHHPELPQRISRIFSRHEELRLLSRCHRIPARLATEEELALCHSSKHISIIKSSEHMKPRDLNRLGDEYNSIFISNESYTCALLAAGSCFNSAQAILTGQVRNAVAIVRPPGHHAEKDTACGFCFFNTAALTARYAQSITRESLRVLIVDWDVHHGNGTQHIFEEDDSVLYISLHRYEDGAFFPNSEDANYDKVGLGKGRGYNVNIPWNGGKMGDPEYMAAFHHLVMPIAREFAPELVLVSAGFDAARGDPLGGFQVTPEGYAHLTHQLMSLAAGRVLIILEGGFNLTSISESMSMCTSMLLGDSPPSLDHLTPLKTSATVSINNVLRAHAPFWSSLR
The experiment is described as follows: Inhibition assay, zebrafish HDAC6 catalytic DD2 domain, Y745F mutant. In kind it is biochemical. As for the experimental part: The second catalytic domain of Danio rerio HDAC6 (amino acids 440–798; zHDAC6) was expressed in RIPL Escherichia coli as described previously using the pEC566-zHDAC6 expression vector.[16],[38] Briefly, bacteria were incubated at 37 °C with shaking (250 rpm) until the optical density reached an OD600 = 0.5. Then, the culture was cooled to 18 °C for 1 h, and recombinant protein expression was induced by the addition of 75 μM isopropyl β-D-1-thiogalactopyranoside together with 200 μM ZnSO4. The culture was grown at 18 °C for an additional 18 h and harvested by centrifugation at 5500g for 15 min. The cell pellet was resuspended in the lysis buffer (50 mM phosphate, 300 mM NaCl, 10% glycerol, and 20 mM imidazole at pH 8; 5 mL g^–1 bacterial pellet) and lysed by three passages through EmulsiFlex (Avestin). Cell lysates were centrifuged (15,000g at 4 °C for 20 min), and the fusion protein in the supernatant was purified via Ni-NTA chromatography. Fractions containing the His-MBP-HDAC6 fusion were concentrated to 2 mg mL^–1 and cleaved overnight by the addition of TEV protease (zHDAC6/TEV 1:20 ratio). The cleaved tag and the TEV protease were sequentially removed using amylose (New England Biolabs) and HisTrap columns (Cytiva), and zHDAC6 was further purified by size-exclusion chromatography on a HiLoad Superdex 75 pg column (GE Healthcare Bio-Sciences). Fractions containing zHDAC6 were pooled, concentrated to 10 mg mL^–1, flash-frozen in liquid nitrogen, and stored at −80 °C. The purity of protein preparations was monitored by SDS-PAGE (Figure S2).
The zHDAC6 mutants (Y745F and H574A) were constructed using the Quick-change site-directed mutagenesis protocol with the pEC566-zHDAC6 expression plasmid as a template. Both mutants were expressed and purified as described above for wild-type zHDAC6 (Figure S2).
(§1) Optimized fluorometric assays were used to determine inhibition constants of studied compounds against individual HDAC isoforms as described previously.[32] Briefly, reactions were performed in the activity buffer comprising 50 mM HEPES, 140 mM NaCl, and 10 mM KCl at pH 7.4 supplemented with 1 mg mL^–1 bovine serum albumin (BSA), 1 mM tris(2-carboxyethyl)phosphine (TCEP), 10 μM substrates, and optimized concentrations of HDACs. The Ac-Gly-Ala-[Lys-Ac]-7-amino-methylcoumarylamide (AMC) substrate was used to profile HDACs 1, 2, 3, and 6; Boc-[Lys-TFA]-7-amino-methylcoumarylamide was used for HDACs 4, 5, 7, 8, and 9 (both substrates: Bachem); fluorescein-labeled N8-acetylspermidine was used for HDAC10;[32] and an internally quenched TNFα-derived peptide derivative was used for HDAC11.[39] Deacetylation reactions were monitored either by high-performance liquid chromatography (HPLC) (HDAC10) or by quantification of released AMC (λex/λem = 365/440 nm) using a CLARIOstar plate reader (BMG Labtech GmbH).

Another experiment concerns the target T2, HDAC6 (Homo sapiens, UniProt Q9UBN7).
T2 construct: TwinStrep-FLAG-HALO (N, cleaved yes); made in house; host or cells: HEK293/T17
T2 sequence (Q9UBN7 1-1215): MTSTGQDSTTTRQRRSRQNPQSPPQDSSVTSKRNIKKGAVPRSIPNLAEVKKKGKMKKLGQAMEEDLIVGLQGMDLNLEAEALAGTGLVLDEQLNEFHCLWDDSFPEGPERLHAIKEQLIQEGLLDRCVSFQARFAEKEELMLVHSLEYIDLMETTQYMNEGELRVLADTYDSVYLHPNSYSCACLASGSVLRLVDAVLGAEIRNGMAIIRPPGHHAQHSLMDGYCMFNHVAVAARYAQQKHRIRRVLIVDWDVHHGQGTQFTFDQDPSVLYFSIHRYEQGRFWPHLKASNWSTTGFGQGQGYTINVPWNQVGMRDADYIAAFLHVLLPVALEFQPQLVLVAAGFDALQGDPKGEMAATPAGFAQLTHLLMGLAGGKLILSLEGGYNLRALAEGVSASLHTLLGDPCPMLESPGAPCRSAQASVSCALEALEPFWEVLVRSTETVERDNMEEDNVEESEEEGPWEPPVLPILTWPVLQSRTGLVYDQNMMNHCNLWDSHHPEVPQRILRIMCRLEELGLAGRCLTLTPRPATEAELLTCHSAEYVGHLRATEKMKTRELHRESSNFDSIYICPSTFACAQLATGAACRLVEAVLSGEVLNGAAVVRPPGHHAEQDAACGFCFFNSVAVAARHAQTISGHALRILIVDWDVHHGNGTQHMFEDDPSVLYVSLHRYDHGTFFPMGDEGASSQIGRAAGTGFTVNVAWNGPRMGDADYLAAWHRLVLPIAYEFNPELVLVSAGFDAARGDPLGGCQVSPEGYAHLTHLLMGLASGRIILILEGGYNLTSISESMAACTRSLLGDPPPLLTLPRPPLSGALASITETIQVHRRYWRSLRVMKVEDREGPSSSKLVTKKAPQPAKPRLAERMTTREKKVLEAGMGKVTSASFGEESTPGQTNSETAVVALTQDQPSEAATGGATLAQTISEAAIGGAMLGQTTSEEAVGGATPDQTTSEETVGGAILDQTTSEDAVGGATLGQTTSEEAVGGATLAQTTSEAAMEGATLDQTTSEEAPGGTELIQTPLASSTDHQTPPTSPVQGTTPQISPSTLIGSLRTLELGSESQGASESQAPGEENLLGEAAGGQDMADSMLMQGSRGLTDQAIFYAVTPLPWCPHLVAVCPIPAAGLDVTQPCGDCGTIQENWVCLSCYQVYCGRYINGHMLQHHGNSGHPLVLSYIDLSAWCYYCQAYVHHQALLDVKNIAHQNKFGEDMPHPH
The experiment in a line: Fluorometric HDAC inhibition assay, HDAC6. In kind it is biochemical. To be noted: purified human protein; Ac-Gly-Ala-[Lys-Ac]-AMC substrate 10 μM; 15 min preincubation. As for the experimental part: Large-scale expression of recombinant human HDACs was carried out as described previously.[32],[37] Briefly, HEK293/T17 cells were transiently transfected with expression pMM222 plasmids comprising N-terminally tagged (TwinStrep-FLAG-HALO tag; Figure S1) HDAC genes using linear poly(ethyleneimine) (PEI, Polysciences Inc.). Cells were harvested three days post-transfection, and cell pellets were resuspended in the lysis buffer (100 mM Tris-HCl, 10 mM NaCl, 5 mM KCl, 2 mM MgCl2, and 10% glycerol at pH 8.0). Cells were disrupted by sonication, cell lysates were cleared by centrifugation, and soluble fusion proteins were first purified by Streptactin affinity chromatography (IBA). For all HDACs but HDACs 1, 10, and 11, the N-terminal tag was cleaved off overnight by the addition of TEV protease (10:1 HDAC/TEV ratio). Size-exclusion chromatography on a Superose 6 column (GE Healthcare Bio-Sciences; running buffer 30 mM HEPES, 140 mM NaCl, 10 mM KCl, 3% glycerol, and 0.25 mM TCEP) was used as the final purification step for all HDAC constructs.
as §1

As to `CS(=O)(=O)N(Cc1ccc(-c2nnc(CF)o2)cn1)c1cccc(Cl)c1` [compound 9], the values for the IC50 against zHDAC6 (Y745F) and on HDAC6 were above 20 µM and 0.085 ± 0.0028 µM, respectively. `Cc1nnc(-c2ccc(CN(c3cccc(Cl)c3)S(C)(=O)=O)nc2)o1` [compound 10] gave an IC50 at HDAC6 above 100 µM.
